This note sets out measurements from patent US9526795B2, “N-BOC-dendrimers and their conjugates” (Annam Biosciences, LLC, priority 2012, dated 2016).

This assay has as its system ovarian cancer cell lines. Briefly: doxorubicin-dendrimer-folate uptake in ovarian cancer cells. Type of assay: cell-based. The note with it: FIG. 8; compared with doxorubicin and doxorubicin-(folate)1; folate-quenching correction. As for the experimental part: Ovarian cancer cells were purchased from ATCC (CRL-6322, ATCC American Type Culture Collection, Rockville, Md.) and were grown in Dulbecco's modified Eagle's medium (DMEM) with 10% fetal bovine serum and 100 units/mL penicillin. The cells were grown at 37° C. in 5% CO2 environment. The culture medium was removed and discarded. The cells were rinsed with Dulbecco Phosphate Buffer Solution (DPBS), Trypsin-ethylenediaminetetra-acetic acid (EDTA) solution (0.5 ml) was added, and the cells were observed under an inverted microscope to make sure that they were dispersed. Complete growth medium (6.0 to 8.0 ml) was added, and the cells were aspirated by gently pipetting. The cell suspension in appropriate aliquots was transferred to new culture plates. The cells were allowed to grow at 37° C. in 5% CO2 for 24 hours before further experiments. […]
The evaluation of doxorubicin-dendrimer-folate uptake is conducted by using a literature procedure (Kim D, Lee E S, Oh K T, Gao Z G, Bae Y H. Doxorubicin-loaded polymeric micelle overcomes multidrug resistance of cancer by double-targeting folate receptor and early endosomal pH. Small. 2008 November; 4(11):2043-50) and folate-quenching correction was adjusted based on a literature procedure (Husseini G. A., 2012. Folic Acid Quenches Doxorubicin Fluorescence. Advanced Science Letters. 7:726).

In the case of `COc1cccc2c1C(=O)c1c(O)c3c(c(O)c1C2=O)C[C@@](O)(/C(CO)=N/NC(=O)CCCC(=O)NCCCOCCOCCOCCCN(CCC(=O)NCCNC(=O)CCC(NC(=O)c1ccc(NCc2cnc4c(=O)[nH]c(N)nc4n2)cc1)C(=O)O)CCC(=O)NCCNC(=O)CCC(NC(=O)c1ccc(NCc2cnc4c(=O)[nH]c(N)nc4n2)cc1)C(=O)O)C[C@H]3O[C@H]1C[C@@H](N)[C@@H](O)[C@@H](C)O1` (stereo partly shown) [doxorubicin-dendrimer-(folate)2, doxorubicin-hydrazine-glutaric acid-PEG3-dendrimer-2-folates], the “uptake by ovarian cancer cell lines” value is “superior uptake”.
